Experimental data as given in BindingDB's records for doi:10.1016/s0960-894x(01)00246-3 (Rohm and Haas, 2001).
pEC50: −log10 of the molar value.

The molecules below were run against Tubulin alpha/beta (Bos taurus) (assay: Inhibition of Bos taurus (bovine) brain tubulin polymerization).

Structure (SMILES)	pEC50
COc1ccc(-c2ccc(OC)c(OC)c2OC)cc1 [2,3,4,4'-Tetramethoxy-biphenyl]	5.20
COc1ccc(-c2ccccc2[N+](=O)[O-])c(OC)c1OC [2,3,4-Trimethoxy-2'-nitro-biphenyl]	< 4.00
COc1cccc([C@@H]2CC=CC[C@H]2[N+](=O)[O-])c1 [1-Methoxy-3-((1S,6R)-6-nitro-cyclohex-3-enyl)-benzene]	< 4.00
O=[N+]([O-])[C@@H]1CC=CC[C@H]1c1ccccc1 [((1S,6R)-6-Nitro-cyclohex-3-enyl)-benzene]	< 4.00

Further lines, results first:

pEC50	Structure (SMILES)
5.20	COc1ccc(-c2ccc(OC)c(OC)c2OC)c([N+](=O)[O-])c1 [2,3,4,4'-Tetramethoxy-2'-nitro-biphenyl]
4.30	COc1ccc(-c2ccccc2C#N)c(OC)c1OC [2',3',4'-Trimethoxy-biphenyl-2-carbonitrile]
5.20	COc1ccc(-c2ccc(OC)c(OC)c2OC)c(C)c1 [2,3,4,4'-Tetramethoxy-2'-methyl-biphenyl]
< 4.00	COc1ccc(C2CC=CCC2C#N)c(OC)c1OC (centres undefined) [6-(2,3,4-Trimethoxy-phenyl)-cyclohex-3-enecarbonitrile]
5.20	COc1ccc(-c2ccc(OC)c(OC)c2OC)c(C#N)c1 [4,2',3',4'-Tetramethoxy-biphenyl-2-carbonitrile]
